Source: the supplement of paper PMC10307832

Assays:
Test in all cases: relative viability (nuclei count vs DMSO), 5 days (fraction); higher = more cells survive
[1] = compound: C1=CC(=CC=C1NC(=S)NNC2=C(C=C(C=C2[N+](=O)[O-])C(F)(F)F)[N+](=O)[O-])F [Kobe2602] + CC(=O)Nc1cccc(-n2c(=O)n(C3CC3)c(=O)c3c(Nc4ccc(I)cc4F)n(C)c(=O)c(C)c32)c1 [Trametinib] (partner 0.02 µM)
How it was run: (§1)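 Values are medians from duplicate plates. Each reflects relative viability, defined as the nuclei count of treated wells over that of vehicle wells. Lung cancer cell lines in 1536-well plates were pin-tool dosed one day after seeding with one drug alone or with a fixed anchor-drug dose plus five library-drug doses (not always all listed) in √10 steps, then fixed, stained and imaged at 4× after 5 days.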

[2] = compound: COc1cc2nccc(Oc3ccc(NC(=O)C4(C(=O)Nc5ccc(F)cc5)CC4)cc3)c2cc1OC [Cabozantinib] + CC(=O)Nc1cccc(-n2c(=O)n(C3CC3)c(=O)c3c(Nc4ccc(I)cc4F)n(C)c(=O)c(C)c32)c1 [Trametinib] (partner 0.02 µM)
How it was run: as §1

[3] = compound: O[C@@H](COc1cccc2ncccc12)CN1CCN([C@@H]2c3ccccc3[C@@H]3[C@H](c4ccccc42)C3(F)F)CC1 [Zosuquidar] + NC(=O)Nc1cc(-c2cccc(F)c2)sc1C(=O)N[C@H]1CCCNC1 [AZD7762] (partner 0.2 µM)
How it was run: as §1

[4] = compound: O[C@@H](COc1cccc2ncccc12)CN1CCN([C@@H]2c3ccccc3[C@@H]3[C@H](c4ccccc42)C3(F)F)CC1 [Zosuquidar] + O=C(c1cc(Cc2n[nH]c(=O)c3ccccc23)ccc1F)N1CCN(C(=O)C2CC2)CC1 [Olaparib] (partner 8 µM)
How it was run: as §1

EKVX
relative viability ([1]; first compound 0.2 µM): 0.38
relative viability ([1]; first compound 0.6325 µM): 0.366
relative viability ([1]; first compound 2 µM): 0.288
relative viability ([1]; first compound 6.325 µM): 0.298
relative viability ([1]; first compound 20 µM): 0.319
relative viability ([2]; first compound 0.02 µM): 0.377
relative viability ([2]; first compound 0.06325 µM): 0.406
relative viability ([2]; first compound 0.2 µM): 0.249
relative viability ([2]; first compound 0.6325 µM): 0.409
relative viability ([2]; first compound 2 µM): 0.351
relative viability ([3]; first compound 0.01 µM): 0.747
relative viability ([3]; first compound 0.03162 µM): 0.77
relative viability ([3]; first compound 0.3162 µM): 0.752
relative viability ([3]; first compound 1 µM): 0.659
relative viability ([4]; first compound 0.01 µM): 0.854
relative viability ([4]; first compound 0.03162 µM): 0.833
relative viability ([4]; first compound 0.3162 µM): 0.913
relative viability ([4]; first compound 1 µM): 0.847

EMC-BAC-2
relative viability ([1]; first compound 0.2 µM): 0.822
relative viability ([1]; first compound 0.6325 µM): 0.874
relative viability ([1]; first compound 2 µM): 0.898
relative viability ([1]; first compound 6.325 µM): 0.91
relative viability ([1]; first compound 20 µM): 0.807
relative viability ([2]; first compound 0.02 µM): 0.912
relative viability ([2]; first compound 0.06325 µM): 0.949
relative viability ([2]; first compound 0.2 µM): 0.823
relative viability ([2]; first compound 0.6325 µM): 0.854
relative viability ([2]; first compound 2 µM): 0.934
relative viability ([3]; first compound 0.01 µM): 1.1
relative viability ([3]; first compound 0.03162 µM): 1.15
relative viability ([3]; first compound 0.1 µM): 1.11
relative viability ([3]; first compound 0.3162 µM): 1.26
relative viability ([3]; first compound 1 µM): 0.979
relative viability ([4]; first compound 0.01 µM): 0.467
relative viability ([4]; first compound 0.03162 µM): 0.487
relative viability ([4]; first compound 0.1 µM): 0.529
relative viability ([4]; first compound 0.3162 µM): 0.535
relative viability ([4]; first compound 1 µM): 0.482

EPLC-272H
relative viability ([1]; first compound 0.2 µM): 0.263
relative viability ([1]; first compound 0.6325 µM): 0.288
relative viability ([1]; first compound 2 µM): 0.304
relative viability ([1]; first compound 6.325 µM): 0.278
relative viability ([1]; first compound 20 µM): 0.299
relative viability ([2]; first compound 0.02 µM): 0.275
relative viability ([2]; first compound 0.06325 µM): 0.318
relative viability ([2]; first compound 0.2 µM): 0.275
relative viability ([2]; first compound 0.6325 µM): 0.246
relative viability ([2]; first compound 2 µM): 0.245
relative viability ([3]; first compound 0.01 µM): 0.233
relative viability ([3]; first compound 0.03162 µM): 0.154
relative viability ([3]; first compound 0.1 µM): 0.29
relative viability ([3]; first compound 0.3162 µM): 0.32
relative viability ([3]; first compound 1 µM): 0.222
relative viability ([4]; first compound 0.01 µM): 0.755
relative viability ([4]; first compound 0.03162 µM): 0.912
relative viability ([4]; first compound 0.1 µM): 0.909
relative viability ([4]; first compound 0.3162 µM): 0.96
relative viability ([4]; first compound 1 µM): 0.745

H3255
relative viability ([1]; first compound 0.2 µM): 0.621
relative viability ([1]; first compound 0.6325 µM): 0.629
relative viability ([1]; first compound 2 µM): 0.549
relative viability ([1]; first compound 6.325 µM): 0.632
relative viability ([1]; first compound 20 µM): 0.588
relative viability ([2]; first compound 0.02 µM): 0.687
relative viability ([2]; first compound 0.06325 µM): 0.639
relative viability ([2]; first compound 0.6325 µM): 0.749
relative viability ([2]; first compound 2 µM): 0.64
relative viability ([3]; first compound 0.01 µM): 1.03
relative viability ([3]; first compound 0.03162 µM): 0.832
relative viability ([3]; first compound 0.1 µM): 0.766
relative viability ([3]; first compound 0.3162 µM): 0.95
relative viability ([3]; first compound 1 µM): 0.795
relative viability ([4]; first compound 0.01 µM): 0.549
relative viability ([4]; first compound 0.03162 µM): 0.559
relative viability ([4]; first compound 0.1 µM): 0.558
relative viability ([4]; first compound 0.3162 µM): 0.553
relative viability ([4]; first compound 1 µM): 0.541

HARA
relative viability ([1]; first compound 0.2 µM): 0.846
relative viability ([1]; first compound 0.6325 µM): 0.636
relative viability ([1]; first compound 2 µM): 0.627
relative viability ([1]; first compound 6.325 µM): 0.771
relative viability ([1]; first compound 20 µM): 0.752
relative viability ([2]; first compound 0.02 µM): 0.749
relative viability ([2]; first compound 0.06325 µM): 0.772
relative viability ([2]; first compound 0.6325 µM): 0.883
relative viability ([2]; first compound 2 µM): 0.633
relative viability ([3]; first compound 0.01 µM): 0.429
relative viability ([3]; first compound 0.03162 µM): 0.343
relative viability ([3]; first compound 0.1 µM): 0.304
relative viability ([3]; first compound 0.3162 µM): 0.344
relative viability ([3]; first compound 1 µM): 0.322
relative viability ([4]; first compound 0.01 µM): 1.13
relative viability ([4]; first compound 0.03162 µM): 0.804
relative viability ([4]; first compound 0.1 µM): 0.905
relative viability ([4]; first compound 0.3162 µM): 0.936
relative viability ([4]; first compound 1 µM): 0.93

HCC-15
relative viability ([1]; first compound 0.2 µM): 0.34
relative viability ([1]; first compound 0.6325 µM): 0.397
relative viability ([1]; first compound 2 µM): 0.362
relative viability ([1]; first compound 6.325 µM): 0.386
relative viability ([1]; first compound 20 µM): 0.387
relative viability ([2]; first compound 0.02 µM): 0.417
relative viability ([2]; first compound 0.06325 µM): 0.373
relative viability ([2]; first compound 0.2 µM): 0.36
relative viability ([2]; first compound 0.6325 µM): 0.356
relative viability ([2]; first compound 2 µM): 0.314
relative viability ([3]; first compound 0.01 µM): 1.11
relative viability ([3]; first compound 0.03162 µM): 1.27
relative viability ([3]; first compound 0.1 µM): 1.17
relative viability ([3]; first compound 0.3162 µM): 1.18
relative viability ([3]; first compound 1 µM): 1.16
relative viability ([4]; first compound 0.01 µM): 0.717
relative viability ([4]; first compound 0.03162 µM): 0.725
relative viability ([4]; first compound 0.1 µM): 0.799
relative viability ([4]; first compound 0.3162 µM): 0.72
relative viability ([4]; first compound 1 µM): 0.747

HCC-44
relative viability ([1]; first compound 0.2 µM): 1.04
relative viability ([1]; first compound 0.6325 µM): 1.16
relative viability ([1]; first compound 2 µM): 1.02
relative viability ([1]; first compound 6.325 µM): 0.939
relative viability ([1]; first compound 20 µM): 0.967
relative viability ([2]; first compound 0.02 µM): 1.04
relative viability ([2]; first compound 0.06325 µM): 1.15
relative viability ([2]; first compound 0.2 µM): 1.21
relative viability ([2]; first compound 0.6325 µM): 1.06
relative viability ([2]; first compound 2 µM): 1.04
relative viability ([3]; first compound 0.01 µM): 1.02
relative viability ([3]; first compound 0.03162 µM): 1.11
relative viability ([3]; first compound 0.1 µM): 1.02
relative viability ([3]; first compound 0.3162 µM): 1.01
relative viability ([3]; first compound 1 µM): 1
relative viability ([4]; first compound 0.01 µM): 1.01
relative viability ([4]; first compound 0.03162 µM): 1.02
relative viability ([4]; first compound 0.1 µM): 1.02
relative viability ([4]; first compound 0.3162 µM): 0.961
relative viability ([4]; first compound 1 µM): 0.934

HCC-78
relative viability ([1]; first compound 0.2 µM): 0.708
relative viability ([1]; first compound 0.6325 µM): 0.891
relative viability ([1]; first compound 2 µM): 0.633
relative viability ([1]; first compound 6.325 µM): 0.768
relative viability ([1]; first compound 20 µM): 0.8
relative viability ([2]; first compound 0.06325 µM): 0.515
relative viability ([2]; first compound 0.2 µM): 0.412
relative viability ([2]; first compound 0.6325 µM): 0.318
relative viability ([2]; first compound 2 µM): 0.321
relative viability ([3]; first compound 0.01 µM): 0.685
relative viability ([3]; first compound 0.3162 µM): 0.72
relative viability ([3]; first compound 1 µM): 0.524
relative viability ([4]; first compound 0.01 µM): 0.939
relative viability ([4]; first compound 0.3162 µM): 0.862
relative viability ([4]; first compound 1 µM): 0.846
